From patent US12161722B2, “Bifunctional heterocyclic compound having BTK degradation function via ubiquitin proteasome pathway, and use thereof” (KOREA RESEARCH INSTITUTE OF CHEMICAL TECHNOLOGY, priority 2021, dated 2024)

biological target: T1, WT BTK protein (Homo sapiens, UniProt Q06187); assay: BTK protein degradation assay (Western blotting), WT BTK; format: cell-based; conditions: concentration range accounting for 50% degradation of WT BTK protein, TMD-8 or RAMOS cells, 24 hours
T1 construct: measured for intracellular BTK protein levels by Western blotting; endogenous in cells; host or cells: TMD-8 or RAMOS cells
T1 sequence (Q06187 whole entry): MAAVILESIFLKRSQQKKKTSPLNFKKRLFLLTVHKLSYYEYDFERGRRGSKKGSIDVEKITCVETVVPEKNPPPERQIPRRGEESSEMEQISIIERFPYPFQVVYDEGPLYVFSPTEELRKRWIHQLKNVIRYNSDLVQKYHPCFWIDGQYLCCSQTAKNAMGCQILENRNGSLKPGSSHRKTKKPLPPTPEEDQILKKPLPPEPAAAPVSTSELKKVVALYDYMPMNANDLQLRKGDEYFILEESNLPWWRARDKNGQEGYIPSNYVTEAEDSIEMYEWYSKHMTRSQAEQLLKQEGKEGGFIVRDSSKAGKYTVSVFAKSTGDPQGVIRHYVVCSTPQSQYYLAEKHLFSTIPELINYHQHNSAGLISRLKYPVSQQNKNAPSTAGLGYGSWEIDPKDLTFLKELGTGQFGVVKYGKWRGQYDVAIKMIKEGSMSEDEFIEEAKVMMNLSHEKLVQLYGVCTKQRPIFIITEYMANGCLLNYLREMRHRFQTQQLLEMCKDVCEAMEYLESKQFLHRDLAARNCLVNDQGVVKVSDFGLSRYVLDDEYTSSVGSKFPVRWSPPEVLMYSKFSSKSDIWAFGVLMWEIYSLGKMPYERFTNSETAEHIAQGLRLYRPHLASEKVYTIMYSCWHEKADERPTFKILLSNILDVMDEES
Summary of the method: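 BTK levels were read by Western blotting (GAPDH and β-actin normalisers) in RIPA lysates of TMD-8 cells exposed to compounds for 24 h at 1×10^6 cells/mL. Results scored in ranges of the concentration producing 50% loss of WT BTK.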

| SMILES | DC50 [nM] |
| --- | --- |
| Cc1cccc(C)c1Nc1nn(C)c2nc(Nc3ccc(F)c(C4=CCN(CC5CCN(c6ccc7c(c6)C(=O)N(C6CCC(=O)NC6=O)C7=O)CC5)CC4)c3)ncc12 (stereo not shown) [Compound 250, 5-(4-((4-(5-((3-((2,6-Dimethylphenyl)amino)-1-methyl-1H-pyrazolo[3,4-d]pyrimidin-6-yl)amino)-2-fluorophenyl)-3,6-dihydropyridin-1 (2H)-yl)methyl)piperidin-1-yl)-2-(2,6-dioxopiperidin-3-yl)isoindoline-1,3-dione] | 0.1 to 10 |
| Cc1cccc(C)c1Nc1nn(C)c2nc(Nc3ccc(N4CCN(C5CN(c6ccc7c(c6)C(=O)N(C6CCC(=O)NC6=O)C7=O)C5)CC4)nc3)ncc12 (stereo not shown) [Compound 158, 5-(3-(4-(5-((3-((2,6-Dimethylphenyl)amino)-1-methyl-1H-pyrazolo[3,4-d]pyrimidin-6-yl)amino)pyridin-2-yl)piperazin-1-yl)azetidin-1-yl)-2-(2,6-dioxopiperidin-3-yl)isoindoline-1,3-dione] | 0.1 to 10 |
| Cc1cccc(C)c1Nc1nn(C)c2nc(Nc3ccc(C4CCN(C5CCN(c6ccc7c(c6)C(=O)N(C6CCC(=O)NC6=O)C7=O)CC5)CC4)cc3)ncc12 (stereo not shown) [Compound 168, 5-(4-(4-((3-((2,6-Dimethylphenyl)amino)-1-methyl-1H-pyrazolo[3,4-d]pyrimidin-6-yl)amino)phenyl)-[1,4′-bipyridin]-1′-yl)-2-(2,6-dioxopiperidin-3-yl)isoindoline-1,3-dione] | 0.1 to 10 |
| Cc1cccc(C)c1Nc1nn(C)c2nc(Nc3ccc4c(c3)C(C)N(CC3CCN(c5ccc6c(c5)C(=O)N(C5CCC(=O)NC5=O)C6=O)CC3)CC4)ncc12 (stereo not shown) [Compound 75, 5-(4-((7-((3-((2,6-Dimethylphenyl)amino)-1-methyl-1H-pyrazolo[3,4-d]pyrimidin-6-yl)amino)-1-methyl-3,4-dihydroisoquinolin-2 (1H)-yl)methyl)piperidin-1-yl)-2-(2,6-dioxopiperidin-3-yl)isoindoline-1,3-dione] | 10 to 1000 |
| Cn1nc(Nc2c(Cl)cccc2Br)c2cnc(Nc3ccc4c(c3)CN(CC3CCN(c5ccc6c(c5)C(=O)N(C5CCC(=O)NC5=O)C6=O)CC3)CC4)nc21 (stereo not shown) [Compound 218, 5-(4-((7-((3-((2-Bromo-6-chlorophenyl)amino)-1-methyl-1H-pyrazolo[3,4-d]pyrimidin-6-yl)amino)-3,4-dihydroisoquinolin-2 (1H)-yl)methyl)piperidin-1-yl)-2-(2,6-dioxopiperidin-3-yl)isoindoline-1,3-dione] | 0.1 to 10 |
| Cc1cccc(C)c1Nc1nn(C)c2nc(Nc3ccc4c(c3)CN(C(=O)/C(C#N)=C/C3CCN(C(=O)C5CCN(c6ccc7c(c6)C(=O)N(C6CCC(=O)NC6=O)C7=O)CC5)CC3)CC4)ncc12 (stereo not shown) [Compound 240, (E)-2-(7-((3-((2,6-Dimethylphenyl)amino)-1-methyl-1H-pyrazolo[3,4-d]pyrimidin-6-yl)amino)-1,2,3,4-tetrahydroisoquinoline-2-carbonyl)-3-(1-(1-(2-(2,6-dioxopiperidin-3-yl)-1,3-dioxoisoindolin-5-yl)piperidine-4-carbonyl)piperidin-4-yl)acrylonitrile] | 0.1 to 10 |
| Cc1cccc(C)c1Nc1nn(C)c2nc(Nc3ccc(C4CCN(C(=O)/C(C#N)=C/C5CCN(C(=O)CNc6ccc7c(c6)C(=O)N(C6CCC(=O)NC6=O)C7=O)CC5)CC4)cc3)ncc12 (stereo not shown) [Compound 261, (E)-2-(4-(4-((3-((2,6-Dimethylphenyl)amino)-1-methyl-1H-pyrazolo[3,4-d]pyrimidin-6-yl)amino)phenyl)piperidine-1-carbonyl)-3-(1-((2-(2,6-dioxopiperidin-3-yl)-1,3-dioxoisoindolin-5-yl)glycyl)piperidin-4-yl)acrylonitrile] | 0.1 to 10 |
| Cc1cccc(C)c1Nc1nn(C)c2nc(Nc3ccc4c(c3)CN(CC3CCN(C(=O)Cc5cccc(NC6=CC(=O)N(C7CCC(=O)NC7=O)C6=O)c5)CC3)CC4)ncc12 (stereo not shown) [Compound 193, 3-(3-((3-(2-(4-((7-((3-((2,6-Dimethylphenyl)amino)-1-methyl-1H-pyrazolo[3,4-d]pyrimidin-6-yl)amino)-3,4-dihydroisoquinolin-2 (1H)-yl)methyl)piperidin-1-yl)-2-oxoethyl)phenyl)amino)-2,5-dioxo-2,5-dihydro-1H-pyrrol-1-yl)piperidin-2,6-one] | 0.1 to 10 |
| Cc1cccc(C)c1Nc1nn(C)c2nc(Nc3ccc(C4CN(CC5CCN(c6ccc7c(c6)C(=O)N(C6CCC(=O)NC6=O)C7=O)CC5)C4)cc3)ncc12 (stereo not shown) [Compound 175, 5-(4-((3-(4-((3-((2,6-Dimethylphenyl)amino)-1-methyl-1H-pyrazolo[3,4-d]pyrimidin-6-yl)amino)phenyl)azetidin-1-yl)methyl)piperidin-1-yl)-2-(2,6-dioxopiperidin-3-yl)isoindoline-1,3-dione] | 0.1 to 10 |
| Cc1cccc(C)c1Nc1nn(C)c2nc(Nc3ccc4c(c3)CN(C3CN(C[C@@H]5[C@H]6CN(c7ccc8c(c7)C(=O)N(C7CCC(=O)NC7=O)C8=O)C[C@@H]56)C3)CC4)ncc12 (stereo partly drawn) [Compound 153, 5-((1R,5S,6S)-6-((3-(7-((3-((2,6-Dimethylphenyl)amino)-1-methyl-1H-pyrazolo[3,4-d]pyrimidin-6-yl)amino)-3,4-dihydroisoquinolin-2 (1H)-yl)azetidin-1-yl)methyl)-3-azabicyclo[3.1.0]hexan-3-yl)-2-(2,6-dioxopiperidin-3-yl)isoindoline-1,3-dione] | 0.1 to 10 |
| Cc1cccc(C)c1Nc1nn(C)c2nc(Nc3ccc4c(c3)CN(C(=O)C3CCN(C(=O)CN5CCN(c6ccc7c(c6)C(=O)N(C6CCC(=O)NC6=O)C7=O)CC5)CC3)CC4)ncc12 (stereo not shown) [Compound 44, 5-(4-(2-(4-(7-((3-((2,6-Dimethylphenyl)amino)-1-methyl-1H-pyrazolo[3,4-d]pyrimidin-6-yl)amino)-1,2,3,4-tetrahydroisoquinoline-2-carbonyl)piperidin-1-yl)-2-oxoethyl)piperazin-1-yl)-2-(2,6-dioxopiperidin-3-yl)isoindoline-1,3-dione] | 0.1 to 10 |
| Cc1cccc(C)c1Nc1nn(C)c2nc(Nc3ccc(N4CCN(CC5CN(c6ccc7c(c6)C(=O)N(C6CCC(=O)NC6=O)C7=O)C5)CC4)nc3)ncc12 (stereo not shown) [Compound 159, 5-(3-((4-(5-((3-((2,6-dimethylphenyl)amino)-1-methyl-1H-pyrazolo[3,4-d]pyrimidin-6-yl)amino)pyridin-2-yl)piperazin-1-yl)methyl)azetidin-1-yl)-2-(2,6-dioxopiperidin-3-yl)isoindoline-1,3-dione] | 0.1 to 10 |
| Cc1cccc(C)c1Nc1nn(C)c2nc(Nc3ccc(C4CCN(C(=O)CN5CCN(c6ccc7c(c6)C(=O)N(C6CCC(=O)NC6=O)C7=O)CC5)CC4)c(F)c3)ncc12 (stereo not shown) [Compound 226, 5-(4-(2-(4-(4-((3-((2,6-Dimethylphenyl)amino)-1-methyl-1H-pyrazolo[3,4-d]pyrimidin-6-yl)amino)-2-fluorophenyl)piperidin-1-yl)-2-oxoethyl)piperazin-1-yl)-2-(2,6-dioxopiperidin-3-yl)isoindoline-1,3-dione] | 0.1 to 10 |
| Cc1cccc(C)c1Nc1nn(C)c2nc(Nc3ccc4c(c3)CN(CC(=O)N3CCC(Oc5ccc6c(c5)CN(C5CCC(=O)NC5=O)C6=O)CC3)CC4)ncc12 (stereo not shown) [Compound 106, 3-(5-((1-(2-(7-((3-((2,6-dimethylphenyl)amino)-1-methyl-1H-pyrazolo[3,4-d]pyrimidin-6-yl)amino)-3,4-dihydroisoquinolin-2 (1H)-yl)acetyl)piperidin-4-yl)oxy)-1-oxoisoindolin-2-yl)piperidin-2,6-one] | 10 to 1000 |
| Cc1cccc(C)c1Nc1nn(C)c2nc(Nc3ccc4c(c3)CN(CCC3(O)CCN(c5ccc6c(c5)C(=O)N(C5CCC(=O)NC5=O)C6=O)CC3)CC4)ncc12 (stereo not shown) [Compound 131, 5-(4-(2-(7-((3-((2,6-Dimethylphenyl)amino)-1-methyl-1H-pyrazolo[3,4-d]pyrimidin-6-yl)amino)-3,4-dihydroisoquinolin-2 (1H)-yl)ethyl)-4-hydroxypiperidin-1-yl)-2-(2,6-dioxopiperidin-3-yl)isoindoline-1,3-dione] | 0.1 to 10 |
| Cc1cccc(C)c1Nc1nn(C)c2nc(Nc3ccc4c(c3)CN(CCC3CCN(c5ccc6c(c5)C(=O)N(C5CCC(=O)NC5=O)C6=O)CC3)CC4)ncc12 (stereo not shown) [Compound 146, 5-(4-(2-(7-((3-((2,6-Dimethylphenyl)amino)-1-methyl-1H-pyrazolo[3,4-d]pyrimidin-6-yl)amino)-3,4-dihydroisoquinolin-2 (1H)-yl)ethyl)piperidin-1-yl)-2-(2,6-dioxopiperidin-3-yl)isoindoline-1,3-dione] | 0.1 to 10 |
| Cc1cccc(C)c1Nc1nn(C)c2nc(Nc3ccc(CCNC(=O)C4CCN(CC(=O)Nc5ccc6c(c5)C(=O)N(C5CCC(=O)NC5=O)C6=O)CC4)cc3)ncc12 (stereo not shown) [Compound 101, N-(4-((3-((2,6-dimethylphenyl)amino)-1-methyl-1H-pyrazolo[3,4-d]pyrimidin-6-yl)amino)phenethyl)-1-(2-((2-(2,6-dioxopiperidin-3-yl)-1,3-dioxoisoindolin-5-yl)amino)-2-oxoethyl)piperidine-4-carboxamide] | 10 to 1000 |
| Cc1cccc(C)c1Nc1nn(C)c2nc(Nc3ccc4c(c3)CN(C(=O)C3CCN(C(=O)CNc5ccc6c(c5)C(=O)N(C5CCC(=O)NC5=O)C6=O)CC3)CC4)ncc12 (stereo not shown) [Compound 45, 5-((2-(4-(7-((3-((2,6-Dimethylphenyl)amino)-1-methyl-1H-pyrazolo[3,4-d]pyrimidin-6-yl)amino)-1,2,3,4-tetrahydroisoquinoline-2-carbonyl)piperidin-1-yl)-2-oxoethyl)amino)-2-(2,6-dioxopiperidin-3-yl)isoindoline-1,3-dione] | 0.1 to 10 |
| Cc1cccc(C)c1Nc1nn(C)c2nc(Nc3ccc4c(c3)CN(CCNc3ccc5c(c3)C(=O)N(C3CCC(=O)NC3=O)C5=O)CC4)ncc12 (stereo not shown) [Compound 123, 5-((2-(7-((3-((2,6-Dimethylphenyl)amino)-1-methyl-1H-pyrazolo[3,4-d]pyrimidin-6-yl)amino)-3,4-dihydroisoquinolin-2 (1H)-yl)ethyl)amino)-2-(2,6-dioxopiperidin-3-yl)isoindoline-1,3-dione] | 10 to 1000 |
